Results on ten compounds are retold here after PMC12530842, “Potent, Selective, and Drug‐Like G Protein‐Coupled Receptor Kinase 5 and 6 Inhibitors: Design, Synthesis, and X‐Ray Structural Studies” (Chemmedchem, 2025).

Molecules are shown by their SMILES.

Assay type in all cases: biochemical
In one experiment the target is T1, GRK2 (Homo sapiens, UniProt P25098).
T1 construct: made in house
T1 sequence (P25098 1-689): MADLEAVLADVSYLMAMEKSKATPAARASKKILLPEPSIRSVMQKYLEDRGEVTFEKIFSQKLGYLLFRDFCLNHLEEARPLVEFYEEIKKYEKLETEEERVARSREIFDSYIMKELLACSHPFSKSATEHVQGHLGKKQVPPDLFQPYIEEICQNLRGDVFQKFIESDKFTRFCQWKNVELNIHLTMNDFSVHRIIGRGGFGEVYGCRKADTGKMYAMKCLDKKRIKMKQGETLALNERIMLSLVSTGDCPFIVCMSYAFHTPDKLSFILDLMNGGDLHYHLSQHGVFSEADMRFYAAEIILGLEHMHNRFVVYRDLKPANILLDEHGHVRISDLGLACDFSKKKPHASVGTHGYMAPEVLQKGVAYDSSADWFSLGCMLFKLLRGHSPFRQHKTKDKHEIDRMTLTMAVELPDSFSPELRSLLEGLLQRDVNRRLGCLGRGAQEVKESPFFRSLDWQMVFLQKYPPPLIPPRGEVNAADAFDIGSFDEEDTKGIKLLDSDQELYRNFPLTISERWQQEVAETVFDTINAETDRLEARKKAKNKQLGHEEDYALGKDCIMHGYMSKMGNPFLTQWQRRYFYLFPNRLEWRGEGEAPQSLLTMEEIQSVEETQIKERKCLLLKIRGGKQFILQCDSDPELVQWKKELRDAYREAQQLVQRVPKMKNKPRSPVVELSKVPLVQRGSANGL
The experiment can be described thus: GRK2 kinase inhibition assay, phosphorylation of tubulin ([γ-32P]-ATP). The settings on record: for IC50: phosphorylation of the soluble substrate tubulin, ± standard deviation from 3 to 4 independent experiments. Here is the method: (§1) The inhibitory potency of synthetic compounds containing the N‐heterocyclic amide functionalities was evaluated against human GRK2, GRK5 and GRK6 using our in vitro assays‐, as reported previously.^[ [35], [37] ^] […] We then investigated the effect of (R)‐ and (S)‐Boc pyrrolidine carboxamide derivatives. […] These improvements of GRK5 IC50 values over their Boc‐derivatives (6c and 6d) indicated the bulky Boc group may not be able to fit as well in the catalytic site of these GRKs. On the other hand, sterically less demanding acetamide derivatives 6e and 6f were well accommodated consistent with their very good activity against GRK5, GRK6, and GRK2, but only with marginal selectivity against GRK2. […] We also examined the effect of 3(S)‐ and 3(R)‐Boc‐pyrrolidine derivatives.
(§2) Protein expression and purification.
(§3) Human GR K5 (residues 1- 590) w ild- type and D 311N mutant w ere expressed in E. co li Rosetta (D E3) and purified v ia nickel-nitrilotriacetic acid affinity chromatography, followed by tandem columns consisting of a HiTrap Q HP anion exchange chromatography column and a HiTrap SP HP cation exchange chromatography column, and finished by Superdex 200 Increase size -exclusion chromatography, as described previously. Human GRK6 (with T10A and mutations that eliminate palmitoylation sites) was expressed in Sf9 insect cells [ 2] and was purified w ith the same protocol for GR K5 [1]. Human GRK2 w as purified as described previously.
(§4) Kinase inhibition Assays.
(§5) Inhibit ion assays were conducted in a reaction mixture containing 20 mM H EPES pH 7. 0, 2 mM MgC l2, and 0.025% n- dodecyl-β-D-maltoside. Prior to reaction initiation, GR K5 or GR K6 at 50 nM was mixed w ith porcine brain tubulin ( PurSolutions) at a concentration of 500 nM. The assay w as started w ith a 30- second incubation of inhibitors, followed by the add it ion of 5 μ M ATP supplemented w ith radioactive [γ-32P]-AT P a t 60 C i/m mol (PerkinElm er Life Sciences). Re actions pro ceeded for 5 m inut es at ro o m te mpera ture a nd were terminated by adding 4X SDS loading buffer. T he reaction mixtures were then s eparated via SDS - PAG E, dried, and exposed using a phosphor imaging screen. Quantification was performed using a Personal Molecular Imager and Quantity One 1- D Analysis Software. Analogous inhibition assays were conducted on p urified GR K2 wit h a t ub ulin conce ntrat ion of 1 μ M. Data ana lysis was perf orme d usin g Graph Pa d Pr ism, and IC50 values wer e calculated based on three- parameter dose- dependent curves (with a Hill coefficient fixed at 1) plotting phosphate transfer against inhibitor concentration. At least three replicates were conducted to determine the mean and standard deviation of IC50 values as published previously . […]
(§6) (6) The final models w ere validated with MolProbity prior to depos ition along with structure factors in the Protein Data Bank. Atomic figures were created with Py mol (7). Cr ystallographic statistics are reported in Supplemental Table 1. Coordinates for inh ib itor 6t (GRL-098- 22) w ere deposited in the Protein Data Bank, with accession code 9BR K.
(§7) 1. Y. Chen, A. Sonawane, R. Manda, R. K. G adi, J. J. G. Tesmer, A. K. Ghosh. Development of a new class of potent and highly select ive G protein- coupled r eceptor kinase 5 inhibitors and structural insight from crystal structures of inhibitor complexes. Eur. J. Med. Chem. 2024, 264, 115931.
(§8) 2. D. T. Lodowski, V. M. T esmer, J. L. Benovic, J. J. Tesmer. The structure of G protein- coupled receptor kinase (GRK)-6 defines a second lineage of GRKs. J. Bio l. C he m. 2006, 281,16785- 16793.

The target of the next experiment is T2, GRK6 (Homo sapiens, UniProt P43250, C561S/C562S/C565S/T10A).
T2 construct: His tag (inferred: purified by the GRK5 protocol, which starts with nickel-NTA); made in house; host or cells: Sf9 insect cells
T2 sequence (P43250 whole entry T10A/C561S/C562S/C565S): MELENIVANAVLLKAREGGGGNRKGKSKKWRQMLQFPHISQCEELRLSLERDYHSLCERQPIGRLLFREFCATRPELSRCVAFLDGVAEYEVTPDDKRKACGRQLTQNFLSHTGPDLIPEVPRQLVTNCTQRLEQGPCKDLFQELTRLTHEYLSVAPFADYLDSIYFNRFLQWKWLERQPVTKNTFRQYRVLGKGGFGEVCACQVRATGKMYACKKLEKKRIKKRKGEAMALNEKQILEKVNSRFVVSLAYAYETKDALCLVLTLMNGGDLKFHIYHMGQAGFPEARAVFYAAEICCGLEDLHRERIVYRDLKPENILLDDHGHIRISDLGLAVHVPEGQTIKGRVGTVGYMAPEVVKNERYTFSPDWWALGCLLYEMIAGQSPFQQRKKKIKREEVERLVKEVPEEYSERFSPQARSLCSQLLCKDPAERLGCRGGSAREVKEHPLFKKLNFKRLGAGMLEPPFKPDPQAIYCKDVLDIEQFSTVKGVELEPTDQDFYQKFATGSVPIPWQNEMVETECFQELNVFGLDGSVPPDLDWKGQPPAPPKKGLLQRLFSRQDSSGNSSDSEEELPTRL
Description: GRK6 kinase inhibition assay, phosphorylation of tubulin ([γ-32P]-ATP). The following applies: for Selectivity GRK5/GRK6: fold selectivity for GRK6 over GRK5; for IC50: phosphorylation of the soluble substrate tubulin, ± standard deviation from 3 to 4 independent experiments. How it is done: as §1, §2, §3, §4, §5, §6, §7, §8

A further experiment has as its target T3, GRK5 (Homo sapiens, UniProt P34947).
T3 construct: Human GR K5 (residues 1- 590) w ild- type and D 311N mutant w ere expressed in E. co li Rosetta; His tag (inferred from nickel-NTA purification); made in house; host or cells: E. coli Rosetta (DE3)
Description: GRK5 kinase inhibition assay, phosphorylation of tubulin ([γ-32P]-ATP). The following applies: for Selectivity GRK2/GRK5: fold selectivity for GRK5 over GRK2; for IC50: phosphorylation of the soluble substrate tubulin, ± standard deviation from 3 to 4 independent experiments. Here is the method:
as §1, §2, §3, §4, §5, §6, §7, §8

T3 sequence (P34947 whole entry, the tested form may be a part): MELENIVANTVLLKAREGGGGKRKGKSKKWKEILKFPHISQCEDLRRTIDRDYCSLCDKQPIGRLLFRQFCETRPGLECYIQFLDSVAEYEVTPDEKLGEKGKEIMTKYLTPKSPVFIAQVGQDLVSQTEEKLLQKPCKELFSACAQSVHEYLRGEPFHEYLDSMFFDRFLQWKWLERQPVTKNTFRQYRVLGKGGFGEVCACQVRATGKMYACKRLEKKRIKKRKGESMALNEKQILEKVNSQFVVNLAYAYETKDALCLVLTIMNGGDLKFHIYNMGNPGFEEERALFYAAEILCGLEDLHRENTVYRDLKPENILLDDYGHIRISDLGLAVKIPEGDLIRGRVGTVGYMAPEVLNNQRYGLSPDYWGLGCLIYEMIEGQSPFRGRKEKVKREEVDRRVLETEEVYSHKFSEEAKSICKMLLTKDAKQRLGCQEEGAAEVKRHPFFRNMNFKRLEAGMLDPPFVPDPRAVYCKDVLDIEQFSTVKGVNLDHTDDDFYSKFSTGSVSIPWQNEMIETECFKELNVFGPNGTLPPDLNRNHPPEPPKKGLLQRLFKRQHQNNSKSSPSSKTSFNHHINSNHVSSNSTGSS

Regarding `CC(=O)N1CCC[C@@H]1C(=O)Nc1c(C)[nH]c(/C=C2\C(=O)Nc3ccc(C(=O)N[C@H](C)c4ccc(F)cc4)cc32)c1C` [6e, (Z)‐3‐((4‐((R)‐1‐Acetylpyrrolidine‐2‐Carboxamido)‐3,5‐Dimethyl‐1H‐Pyrrol‐2‐Yl)Methylene)‐N‐((R)‐1‐(4‐Fluorophenyl)Ethyl)‐2‐Oxoindoline‐5‐Carboxamide], the IC50 is 0.32 ± 0.09 µM on GRK2, 0.06 ± 0.02 µM against GRK6 and 0.04 ± 0.006 µM against GRK5. The “Selectivity GRK5/GRK6” value on GRK6 turned out to be 1 fold. For the same compound, the “Selectivity GRK2/GRK5” value on GRK5 is reported as 8 fold.
With `Cc1[nH]c(/C=C2\C(=O)Nc3ccc(C(=O)N[C@H](C)c4ccc(F)cc4)cc32)c(C)c1NC(=O)[C@H]1CNCCN1` [6u, (Z)‐3‐((3,5‐Dimethyl‐4‐((R)‐Piperazine‐2‐Carboxamido)‐1 H‐Pyrrol‐2‐Yl)Methylene)‐N‐((R)‐1‐(4‐Fluorophenyl)Ethyl)‐2‐Oxoindoline‐5‐Carboxamide], the 50% inhibitory concentration (IC50) stood at 0.21 ± 0.1 µM against GRK2, 0.05 µM on GRK6 and 0.014 ± 0.001 µM against GRK5. The “Selectivity GRK2/GRK5” value at GRK5 amounted to 15 fold.
In the case of `Cc1[nH]c(/C=C2\C(=O)Nc3ccc(C(=O)N[C@H](C)c4ccc(F)cc4)cc32)c(C)c1NC(=O)[C@@H]1C=CCN1` [6j, (Z)‐3‐((4‐((S)‐2,5‐Dihydro‐1H‐Pyrrole‐2‐Carboxamido)‐3,5‐Dimethyl‐1H‐Pyrrol‐2‐Yl)Methylene)‐N‐((R)‐1‐(4‐Fluorophenyl)Ethyl)‐2‐Oxoindoline‐5‐Carboxamide], the half-maximal inhibitory concentration (IC50) against GRK2 was 0.48 ± 0.4 µM. Also, on GRK6, the “Selectivity GRK5/GRK6” value stood at 1 fold and half-maximal inhibition (IC50) required 0.03 ± 0.01 µM. On GRK5 (GRK5 vs GRK2, as stated in text), the “selectivity over GRK2” value is on record as “over 15 fold”. In addition, at GRK5, the “Selectivity GRK2/GRK5” value is given as 16 fold and the IC50 is 0.03 ± 0.004 µM.
In the case of `Cc1[nH]c(/C=C2\C(=O)Nc3ccc(C(=O)N[C@H](C)c4ccc(F)cc4)cc32)c(C)c1NC(=O)[C@H]1CCCCN1C(=O)OC(C)(C)C` [6m, Tert‐Butyl(R)‐2‐((5‐(((Z)‐5‐(((R)‐1‐(4‐Fluorophenyl)Ethyl)Carbamoyl)‐2‐Oxoindolin‐3‐Ylidene)Methyl)‐2,4‐Dimethyl‐1H‐Pyrrol‐3‐Yl)Carbamoyl)Piperidine‐1‐Carboxylate], the 50% inhibitory concentration (IC50) is 1.2 ± 0.4 µM at GRK2, 2.5 ± 0.4 µM at GRK6 and 0.5 ± 0.1 µM at GRK5. Further, the “Selectivity GRK2/GRK5” value on GRK5 amounted to 2 fold.
In the case of `Cc1[nH]c(/C=C2\C(=O)Nc3ccc(C(=O)N[C@H](C)c4ccc(F)cc4)cc32)c(C)c1NC(=O)[C@@H]1CCCN1` [6h, (Z)‐3‐((3,5‐Dimethyl‐4‐((S)‐pyrrolidine‐2‐carboxamido)‐1H‐pyrrol‐2‐yl)methylene)‐N‐((R)‐1‐(4‐fluorophenyl)ethyl)‐2‐oxoindoline‐5‐carboxamide], half-maximal inhibition on GRK2 (IC50) was put at 0.08 ± 0.01 µM. Further, at GRK6, the “Selectivity GRK5/GRK6” value is recorded as 3 fold and the midpoint of inhibition, the IC50, lay at 0.034 ± 0.01 µM. Further, at GRK5, the “Selectivity GRK2/GRK5” value amounted to 1 fold and the midpoint of inhibition, the IC50, lay at 0.09 ± 0.04 µM.
Regarding `Cc1[nH]c(/C=C2\C(=O)Nc3ccc(C(=O)N[C@H](C)c4ccc(F)cc4)cc32)c(C)c1NC(=O)[C@@H]1CCCN1C(=O)OC(C)(C)C` [6d, Tert‐Butyl(S)‐2‐((5‐(((Z)‐5‐(((R)‐1‐(4‐Fluorophenyl)Ethyl)Carbamoyl)‐2‐Oxoindolin‐3‐Ylidene)Methyl)‐2,4‐Dimethyl‐1H‐Pyrrol‐3‐Yl)Carbamoyl)Pyrrolidine‐1‐Carboxylate], the IC50 at GRK2 is over 1000 µM; against GRK6, 9.9 ± 2 µM; against GRK5 it was 0.44 ± 0.16 µM. Besides, the “Selectivity GRK2/GRK5” value at GRK5 is reported as over 2000 fold. At GRK5 (over the (R)-Boc derivative 6c), the “fold enhanced GRK5 inhibitory activity” value is recorded as “over 100 fold”.
Consider `Cc1[nH]c(/C=C2\C(=O)Nc3ccc(C(=O)N[C@H](C)c4ccc(F)cc4)cc32)c(C)c1NC(=O)[C@@H]1CCN(C(=O)OC(C)(C)C)C1` [6k, Tert‐Butyl(R)‐3‐((5‐(((Z)‐5‐(((R)‐1‐(4‐Fluorophenyl)Ethyl)Carbamoyl)‐2‐Oxoindolin‐3‐Ylidene)Methyl)‐2,4‐Dimethyl‐1H‐Pyrrol‐3‐Yl)Carbamoyl)Pyrrolidine‐1‐Carboxylate], for which, on GRK2, the “activity against GRK2 (in words)” value is “little to no activity” and inhibition was half-maximal at 300 ± 100 µM (IC50). Moreover, on GRK6, the “GRK6 IC50 (in words)” value was “low micromolar range”, the “Selectivity GRK5/GRK6” value stood at 1 fold and the IC50 is 1.4 ± 0.2 µM. For the same compound, at GRK5, the “GRK5 IC50 (in words)” value is recorded as “low micromolar range”, the “Selectivity GRK2/GRK5” value was found to be 140 fold and the 50% inhibitory concentration (IC50) was 2.1 ± 0.9 µM.
As to `Cc1[nH]c(/C=C2\C(=O)Nc3ccc(C(=O)N[C@H](C)c4ccc(F)cc4)cc32)c(C)c1NC(=O)[C@H]1CCC(=O)N1` [6b, (Z)‐3‐((3,5‐Dimethyl‐4‐((R)‐5‐Oxopyrrolidine‐2‐Carboxamido)‐1H‐Pyrrol‐2‐Yl)Methylene)‐N‐((R)‐1‐(4‐Fluorophenyl)Ethyl)‐2‐Oxoindoline‐5‐Carboxamide], at GRK2, the 50% inhibitory concentration (IC50) came to 2.1 ± 0.2 µM. Also, on GRK6, the “Selectivity GRK5/GRK6” value is 30 fold and the concentration for half-maximal inhibition (IC50) turned out to be 0.028 ± 0.002 µM. Besides, on GRK5, the “Selectivity GRK2/GRK5” value is 3 fold and it took 0.8 ± 0.4 µM to reach half-maximal inhibition (IC50). Besides, at GRK5 (in comparison with compound 6a), the “fold reduction of GRK5 activity” value amounted to 30 fold.
On to `Cc1[nH]c(/C=C2\C(=O)Nc3ccc(C(=O)N[C@H](C)c4ccc(F)cc4)cc32)c(C)c1NC(=O)[C@H]1CCCN1C(=O)OC(C)(C)C` [6c, Tert‐Butyl(R)‐2‐((5‐(((Z)‐5‐(((R)‐1‐(4‐Fluorophenyl)Ethyl)Carbamoyl)‐2‐Oxoindolin‐3‐Ylidene)Methyl)‐2,4‐Dimethyl‐1H‐Pyrrol‐3‐Yl)Carbamoyl)Pyrrolidine‐1‐Carboxylate], for which half-maximal inhibition at GRK2 (IC50) was put at 160 ± 100 µM. Further, on GRK6, the “Selectivity GRK5/GRK6” value is on record as 35 fold and half-maximal inhibition (IC50) required 1.4 ± 0.5 µM. For the same compound, on GRK5, the “Selectivity GRK2/GRK5” value is listed as over 3 fold and the IC50 was 50 ± 30 µM.
`Cc1[nH]c(/C=C2\C(=O)Nc3ccc(C(=O)N[C@H](C)c4ccc(F)cc4)cc32)c(C)c1NC(=O)[C@H]1CCN(C(=O)OC(C)(C)C)C1` [6l, Tert‐Butyl(S)‐3‐((5‐(((Z)‐5‐(((R)‐1‐(4‐Fluorophenyl)Ethyl)Carbamoyl)‐2‐Oxoindolin‐3‐Ylidene)Methyl)‐2,4‐Dimethyl‐1H‐Pyrrol‐3‐Yl)Carbamoyl)Pyrrolidine‐1‐Carboxylate]: the IC50 against GRK2 was over 1000 µM. At GRK6, the “Selectivity GRK5/GRK6” value is 1 fold and half-maximal inhibition (IC50) was put at 0.88 ± 0.05 µM. For the same compound, at GRK5, the “Selectivity GRK2/GRK5” value is listed as over 1000 fold and the IC50 was determined as 1 ± 0.6 µM.
